Measured values published in US10004775B2, “Inhibition of hypoxia-inducible factor activity with carica papaya extracts” (The Regents of the University of California, priority 2013, dated 2018).

Key:
[1] = tested on: Saos-2 cells; test: MTT assay of cell viability after 24 h treatment in normoxic or hypoxic conditions; type: cell-based, human; conditions: FIG. 1A
Experimental: The leaves were washed with distilled water and left to air-dry at room temperature or in an oven at 40° C. until a constant weight was obtained. Dried leaves were then blended into a powder form, soaked and extracted in methanol at a 1:3 ratio (w/v) for three days at room temperature. Extracts were filtered by Whatman No. 1 filter paper with the aid of a vacuum pump. The residues were re-extracted twice using the same methanolic method. Filtrates were then concentrated by rotary evaporator at a maximum of 40° C. Concentrated extracts were collected in glass vials with push-in caps and dried in an oven at 40° C. until a constant weight was obtained. All of the crude extracts were stored −80° C. […] These concentrations were determined empirically and selected to cover a range of effects, ranging from no effect to significant cytotoxicity. […] After a further 4 h of incubation in 5% CO2 at 37° C., formazan precipitates that formed were dissolved with 100 μl of DMSO and the reaction was read in a microplate reader (Model 550, BioRad, Hercules, Calif.) at 570 nm absorbance and 630 nm as the reference wavelength.

[2] = tested on: HIF; test: HIF reporter assay (hypoxia-driven firefly luciferase reporter); type: cell-based, human; conditions: cisplatin 0.1 mM; hypoxic HRE-luc Saos2 cells
Experimental: A human osteosarcoma cell line, Saos-2 stably expressing four copies of the erythropoietin hypoxia response elements (HRE-luc Saos2; […] et al., Malaysian Patent Application #: PI 2012003492), was cultured in DMEM medium (PAA, USA) supplemented with 10% (v/v) fetal bovine serum (FBS; PAA, USA) and 1% (v/v) antibiotic-antimycotic (PAA, USA) in a humidified incubator supplied with ambient oxygen and 5% CO2 at 37° C. An hypoxic gaseous environment was created by incubating cells in a ProOx in vitro chamber (BioSpherix), controlled by ProOx model 110 (BioSpherix). The cells were supplied 0.5% O2, 94.5% N2 and 5% CO2 at 37° C. Cells were co-transfected with a hypoxia-driven firefly luciferase reporter plasmid construct containing four copies of the erythropoietin (EPO) hypoxia response elements (HRE) and a pRL-CMV expressing Renilla luciferase as described previously (Kaluz et al., 2008, […] et al., 2009, […] et al. Malaysian Patent Application No. PI 2012003492). Transfected cells were treated with appropriate concentrations of plant extracts and incubated in either normoxic or hypoxic conditions. After 24 h, firefly and Renilla luciferase signal intensities were measured (Kaluz et al., 2008, […] et al, 2009). Percent HIF inhibition was calculated as a ratio of the difference between untreated and plant extract-treated sample to the untreated sample. […]

Row | SMILES | IC50 in hypoxia compared with normoxia, in words [1] | percent HIF inhibition [2]
1 | CN1C(=O)[C@]2(Cc3cn([C@]45C[C@@]67SS[C@@](CO)(C(=O)N6[C@H]4Nc4ccccc45)N(C)C7=O)c4ccccc34)SS[C@@]1(CO)C(=O)N2C [chetomin] | increased in hypoxia | –
2 | N.N.[Cl][Pt][Cl] [cisplatin] | significantly higher than in normoxia | around 60%
